Assay results: patent US12077503B2, “Substituted cyclic amides and their use as herbicides” (FMC CORPORATION, priority 2015, dated 2024)
Read-outs that look alike come from different tables or passages of the source.

Columns and labels:
Type in all cases: in vivo
[1] = test system: pigweed (Amaranthus retroflexus); assay: Test A preemergence; settings: Amaranthus retroflexus, pre-emergence, 240 h, preemergence, 0 to 100 scale where 0 is no effect and 100 is complete control, read-out: Pigweed plant response rating; for pest or weed control at 125 g/ha: 125 g ai/ha, approx. 10 d; for pest or weed control at 500 g/ha: 500 g ai/ha
Kochia (Kochia scoparia) = assay: Test A preemergence; settings: Bassia scoparia, pre-emergence, 240 h, preemergence, 0 to 100 scale where 0 is no effect and 100 is complete control, read-out: Kochia plant response rating; for pest or weed control at 125 g/ha: 125 g ai/ha, approx. 10 d; for pest or weed control at 500 g/ha: 500 g ai/ha
Outline: (§1)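 Preemergence soil spray on seeded pots or post-emergence spray on 1–2 leaf plants, in loam–sand blend. Greenhouse ~10 d. Visual rating 0–100 against untreated plants.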

[2] = test system: giant foxtail (Setaria faberii); assay: Test A preemergence; settings: Setaria faberi, pre-emergence, 240 h, preemergence, 0 to 100 scale where 0 is no effect and 100 is complete control, read-out: Foxtail, Giant plant response rating; for pest or weed control at 125 g/ha: 125 g ai/ha, approx. 10 d; for pest or weed control at 500 g/ha: 500 g ai/ha
Outline: as §1

[3] = test system: ryegrass, Italian (Italian ryegrass, Lolium multiflorum); assay: Test A preemergence; settings: Lolium multiflorum, pre-emergence, 240 h, preemergence, 0 to 100 scale where 0 is no effect and 100 is complete control, read-out: Ryegrass, Italian plant response rating; for pest or weed control at 125 g/ha: 125 g ai/ha, approx. 10 d; for pest or weed control at 500 g/ha: 500 g ai/ha
Outline: as §1

[4] = test system: ragweed (common ragweed, Ambrosia elatior); assay: Test A preemergence; settings: Ambrosia artemisiifolia, pre-emergence, 240 h, preemergence, 0 to 100 scale where 0 is no effect and 100 is complete control, read-out: Ragweed plant response rating; for pest or weed control at 125 g/ha: 125 g ai/ha, approx. 10 d; for pest or weed control at 500 g/ha: 500 g ai/ha
Outline: as §1

[5] = test system: barnyardgrass (Echinochloa crus-galli); assay: Test A preemergence; settings: Echinochloa crus-galli, pre-emergence, 240 h, preemergence, 0 to 100 scale where 0 is no effect and 100 is complete control, read-out: Barnyardgrass plant response rating; for pest or weed control at 125 g/ha: 125 g ai/ha, approx. 10 d; for pest or weed control at 500 g/ha: 500 g ai/ha
Outline: as §1

[6] = test system: blackgrass (Alopecurus myosuroides); assay: Test A postemergence; settings: Alopecurus myosuroides, post-emergence, 240 h, postemergence; for pest or weed control at 125 g/ha: 125 g ai/ha; for pest or weed control at 500 g/ha: 500 g ai/ha, 0 to 100 scale, 0 is no effect, 100 is complete control
Outline: as §1

[7] = test system: pigweed (Amaranthus retroflexus); assay: Test A postemergence; settings: Amaranthus retroflexus, post-emergence, 240 h, postemergence; for pest or weed control at 125 g/ha: 125 g ai/ha; for pest or weed control at 500 g/ha: 500 g ai/ha, 0 to 100 scale, 0 is no effect, 100 is complete control
Outline: as §1

[8] = test system: giant foxtail (Setaria faberii); assay: Test A postemergence; settings: Setaria faberi, post-emergence, 240 h, postemergence; for pest or weed control at 125 g/ha: 125 g ai/ha; for pest or weed control at 500 g/ha: 500 g ai/ha, 0 to 100 scale, 0 is no effect, 100 is complete control
Outline: as §1

[9] = test system: ryegrass, Italian (Italian ryegrass, Lolium multiflorum); assay: Test A postemergence; settings: Lolium multiflorum, post-emergence, 240 h, postemergence; for pest or weed control at 125 g/ha: 125 g ai/ha; for pest or weed control at 500 g/ha: 500 g ai/ha, 0 to 100 scale, 0 is no effect, 100 is complete control
Outline: as §1

corn (Zea mays) = assay: Test A postemergence; settings: Zea mays, post-emergence, 240 h, postemergence; for plant injury at 125 g/ha: 125 g ai/ha; for plant injury at 500 g/ha: 500 g ai/ha, 0 to 100 scale, 0 is no effect, 100 is complete control
Outline: as §1

[10] = test system: wheat (Triticum aestivum); assay: Test A postemergence; settings: Triticum aestivum, post-emergence, 240 h, postemergence; for plant injury at 125 g/ha: 125 g ai/ha; for plant injury at 500 g/ha: 500 g ai/ha, 0 to 100 scale, 0 is no effect, 100 is complete control
Outline: as §1

[11] = test system: ragweed (common ragweed, Ambrosia elatior); assay: Test A postemergence; settings: Ambrosia artemisiifolia, post-emergence, 240 h, postemergence; for pest or weed control at 125 g/ha: 125 g ai/ha; for pest or weed control at 500 g/ha: 500 g ai/ha, 0 to 100 scale, 0 is no effect, 100 is complete control
Outline: as §1

[12] = test system: barnyardgrass (Echinochloa crus-galli); assay: Test A postemergence; settings: Echinochloa crus-galli, post-emergence, 240 h, postemergence; for pest or weed control at 125 g/ha: 125 g ai/ha; for pest or weed control at 500 g/ha: 500 g ai/ha, 0 to 100 scale, 0 is no effect, 100 is complete control
Outline: as §1

[13] = test system: Galium (catchweed bedstraw, Galium aparine); assay: Test A postemergence; settings: Galium, post-emergence, 240 h, postemergence; for pest or weed control at 125 g/ha: 125 g ai/ha; for pest or weed control at 500 g/ha: 500 g ai/ha, 0 to 100 scale, 0 is no effect, 100 is complete control
Outline: as §1

[14] = read-out: Blackgrass plant response rating
[15] = read-out: Pigweed plant response rating
[16] = read-out: Foxtail, Giant plant response rating
[17] = read-out: Ryegrass, Italian plant response rating
[18] = read-out: Corn plant response rating
[19] = read-out: Wheat plant response rating
[20] = read-out: Ragweed plant response rating
[21] = read-out: Barnyardgrass plant response rating
[22] = read-out: Galium plant response rating

Structure (SMILES) | pest or weed control at 125 g/ha [1] | pest or weed control at 500 g/ha [1] | pest or weed control at 125 g/ha (Kochia (Kochia scoparia)) | pest or weed control at 500 g/ha (Kochia (Kochia scoparia)) | pest or weed control at 125 g/ha [2] | pest or weed control at 500 g/ha [2] | pest or weed control at 125 g/ha [3] | pest or weed control at 500 g/ha [3] | pest or weed control at 125 g/ha [4] | pest or weed control at 500 g/ha [4] | pest or weed control at 125 g/ha [5] | pest or weed control at 500 g/ha [5] | pest or weed control at 500 g/ha [6, 14] | pest or weed control at 500 g/ha [7, 15] | pest or weed control at 500 g/ha [8, 16] | pest or weed control at 500 g/ha [9, 17] | plant injury at 500 g/ha (corn (Zea mays); [18]) | plant injury at 500 g/ha [10, 19] | pest or weed control at 500 g/ha [11, 20] | pest or weed control at 500 g/ha [12, 21] | also measured
CCc1ccc([C@H]2CNC(=O)[C@@H]2C(=O)Nc2ccccc2SC)cc1 [Compound 1178] | 20% | 50% | 40% | 70% | 20% | 70% | 0% | 20% | 0% | 50% | 20% | 50% | 20% | 0% | 30% | 0% | 0% | 0% | 20% | 30% | pest or weed control at 125 g/ha ([6]; visual injury vs untreated controls after approx. 10 d, 0 = no effect, 100 = complete control, read-out: Blackgrass plant response rating (0 to 100 scale)): 0%; pest or weed control at 125 g/ha ([7]; visual injury vs untreated controls after approx. 10 d, 0 = no effect, 100 = complete control, read-out: Pigweed plant response rating (0 to 100 scale)): 0%; pest or weed control at 125 g/ha ([8]; visual injury vs untreated controls after approx. 10 d, 0 = no effect, 100 = complete control, read-out: Foxtail, Giant plant response rating (0 to 100 scale)): 0%; pest or weed control at 125 g/ha ([9]; visual injury vs untreated controls after approx. 10 d, 0 = no effect, 100 = complete control, read-out: Ryegrass, Italian plant response rating (0 to 100 scale)): 0%; plant injury at 125 g/ha (corn (Zea mays); visual injury vs untreated controls after approx. 10 d, 0 = no effect, 100 = complete control, read-out: Corn plant response rating (0 to 100 scale)): 0%; plant injury at 125 g/ha ([10]; visual injury vs untreated controls after approx. 10 d, 0 = no effect, 100 = complete control, read-out: Wheat plant response rating (0 to 100 scale)): 0%; pest or weed control at 125 g/ha ([11]; visual injury vs untreated controls after approx. 10 d, 0 = no effect, 100 = complete control, read-out: Ragweed plant response rating (0 to 100 scale)): 0%; pest or weed control at 125 g/ha ([12]; visual injury vs untreated controls after approx. 10 d, 0 = no effect, 100 = complete control, read-out: Barnyardgrass plant response rating (0 to 100 scale)): 0%; pest or weed control at 125 g/ha ([13]; visual injury vs untreated controls after approx. 10 d, 0 = no effect, 100 = complete control, read-out: Galium plant response rating (0 to 100 scale)): 30%; pest or weed control at 500 g/ha [13, 22]: 30%
CC(C)Oc1ccc([C@H]2CNC(=O)[C@@H]2C(=O)Nc2cccc(F)c2F)cc1 [Compound 1136] | 0% | 0% | 0% | 80% | 30% | 90% | 0% | 30% | 0% | 0% | 30% | 90% | 30% | 0% | 90% | 0% | 0% | 0% | 0% | 90% | pest or weed control at 125 g/ha ([6]; visual injury on 0 to 100 scale (0 no effect, 100 complete control), approx. 10 d, read-out: Blackgrass plant response rating): 0%; pest or weed control at 125 g/ha ([7]; visual injury on 0 to 100 scale (0 no effect, 100 complete control), approx. 10 d, read-out: Pigweed plant response rating): 0%; pest or weed control at 125 g/ha ([8]; visual injury on 0 to 100 scale (0 no effect, 100 complete control), approx. 10 d, read-out: Foxtail, Giant plant response rating): 20%; pest or weed control at 125 g/ha ([9]; visual injury on 0 to 100 scale (0 no effect, 100 complete control), approx. 10 d, read-out: Ryegrass, Italian plant response rating): 0%; plant injury at 125 g/ha (corn (Zea mays); visual injury on 0 to 100 scale (0 no effect, 100 complete control), approx. 10 d, read-out: Corn plant response rating): 0%; plant injury at 125 g/ha ([10]; visual injury on 0 to 100 scale (0 no effect, 100 complete control), approx. 10 d, read-out: Wheat plant response rating): 0%; pest or weed control at 125 g/ha ([11]; visual injury on 0 to 100 scale (0 no effect, 100 complete control), approx. 10 d, read-out: Ragweed plant response rating): 0%; pest or weed control at 125 g/ha ([12]; visual injury on 0 to 100 scale (0 no effect, 100 complete control), approx. 10 d, read-out: Barnyardgrass plant response rating): 30%; pest or weed control at 125 g/ha ([13]; visual injury on 0 to 100 scale (0 no effect, 100 complete control), approx. 10 d, read-out: Galium plant response rating): 0%; pest or weed control at 500 g/ha [13, 22]: 20%
